Measurements reported in PubChem BioAssay (NCI).
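Where inhibition never reached the appropriate level, the endpoint shown equals the highest concentration tested. Otherwise, values were interpolated linearly from a five-concentration, 48-hour dose response in 96-well plates. GI50: concentration for 50% inhibition of growth. TGI: total growth inhibition.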

How the values were obtained:
Assay in all cases: DTP human tumour cell line panel, 48 h
[1] = system: HCT-15 colon
[2] = system: MOLT-4 leukemia
[3] = system: SK-MEL-5 melanoma
[4] = system: SNB-19 CNS
[5] = system: KM12 colon
[6] = system: SF-268 CNS
[7] = system: CAKI-1 renal
[8] = system: U251 CNS
[9] = system: MCF7 breast
[10] = system: HL-60(TB) leukemia
[11] = system: SN12C renal
[12] = system: SK-MEL-28 melanoma
[13] = system: UO-31 renal
[14] = system: MALME-3M melanoma
[15] = system: BT-549 breast
[16] = system: HCC-2998 colon
[17] = system: A498 renal
[18] = system: RXF 393 renal
[19] = system: K-562 leukemia
[20] = system: SK-MEL-2 melanoma
[21] = system: MDA-MB-435
[22] = system: MDA-MB-231 breast
[23] = system: PC-3 prostate
[24] = system: HOP-92 NSCLC
[25] = system: NCI/ADR-RES ovarian
[26] = system: ACHN renal
[27] = system: NCI-H460 lung
[28] = system: UACC-62 melanoma
[29] = system: RPMI-8226 leukemia
[30] = system: NCI-H23 lung
[31] = system: OVCAR-5 ovarian
[32] = system: 786-0 renal
[33] = system: COLO 205 colon
[34] = system: HS 578T breast
[35] = system: EKVX NSCLC
[36] = system: A549 NSCLC
[37] = system: NCI-H226 lung
[38] = system: NCI-H522 lung
[39] = system: HCT-116 colon
[40] = system: OVCAR-8 ovarian
[41] = system: OVCAR-4 ovarian
[42] = system: SF-539 CNS
[43] = system: SNB-75 CNS
[44] = system: SF-295 CNS
[45] = system: SW-620 colon
[46] = system: OVCAR-3 ovarian
[47] = system: SR leukemia
[48] = system: CCRF-CEM leukemia
[49] = system: IGROV1 ovarian
[50] = system: TK-10 renal
[51] = system: M14 melanoma
[52] = system: DU-145 prostate
[53] = system: HT29 colon
[54] = system: HOP-62 NSCLC
[55] = system: LOX IMVI melanoma
[56] = system: SK-OV-3 ovarian
[57] = system: T-47D breast
[58] = system: UACC-257 melanoma

What does the source list for `Cc1cc(C)c2c(c1)N(C)c1ncnc(-n3cnc4cc(C)ccc43)c1CC2C` (stereo unspecified)?
GI50 [1]: 3.58 µM; TGI [1]: 36.3 µM; GI50 [2]: 2.46 µM; TGI [2]: 9.57 µM; GI50 [3]: 2.24 µM; TGI [3]: 5.34 µM; GI50 [4]: 4.22 µM; TGI [4]: > 100 µM; GI50 [5]: 3.67 µM; TGI [5]: 26 µM; GI50 [6]: 6.04 µM; TGI [6]: > 100 µM; GI50 [7]: 3.37 µM; TGI [7]: 70.2 µM; GI50 [8]: 3.55 µM; TGI [8]: 19.4 µM; GI50 [9]: 3.42 µM; TGI [9]: > 100 µM; GI50 [10]: 2.46 µM; TGI [10]: 9.36 µM; GI50 [11]: 4.37 µM; TGI [11]: 19.7 µM; GI50 [12]: 5.61 µM; TGI [12]: 20.7 µM; GI50 [13]: 2.5 µM; TGI [13]: 16.2 µM; GI50 [14]: 3.61 µM; TGI [14]: 17.3 µM; GI50 [15]: 2.93 µM; TGI [15]: 12 µM; GI50 [16]: 4.05 µM; TGI [16]: 61.8 µM; GI50 [17]: 1.41 µM; TGI [17]: 6.21 µM; GI50 [18]: 2.66 µM; TGI [18]: 9.06 µM; GI50 [19]: 1.5 µM; TGI [19]: > 100 µM; GI50 [20]: 4.21 µM; TGI [20]: 26.6 µM; GI50 [21]: 2.44 µM; TGI [21]: 10.6 µM; GI50 [22]: 3.03 µM; TGI [22]: 14.6 µM; GI50 [23]: 2.25 µM; TGI [23]: 14.8 µM; GI50 [24]: 4.1 µM; TGI [24]: 32.9 µM; GI50 [25]: 3.05 µM; TGI [25]: 19.5 µM; GI50 [26]: 4.07 µM; TGI [26]: 18.3 µM; GI50 [27]: 3.4 µM; TGI [27]: 11.4 µM; GI50 [28]: 3.13 µM; TGI [28]: 18.4 µM; GI50 [29]: 2.59 µM; TGI [29]: 9.08 µM; GI50 [30]: 4.87 µM; TGI [30]: > 100 µM; GI50 [31]: 5.52 µM; TGI [31]: 24.4 µM; GI50 [32]: 3.53 µM; TGI [32]: 15.4 µM; GI50 [33]: 3.32 µM; TGI [33]: 10.5 µM; GI50 [34]: 3 µM; TGI [34]: 31 µM; GI50 [35]: 4.76 µM; TGI [35]: > 100 µM; GI50 [36]: 4.03 µM; TGI [36]: 56.9 µM; GI50 [37]: 3.1 µM; TGI [37]: 17.9 µM; GI50 [38]: 2.07 µM; TGI [38]: 6.53 µM; GI50 [39]: 3.08 µM; TGI [39]: 14.6 µM; GI50 [40]: 3.79 µM; TGI [40]: 20 µM; GI50 [41]: 4.18 µM; TGI [41]: 47.4 µM; GI50 [42]: 2.74 µM; TGI [42]: 9.16 µM; GI50 [43]: 2.8 µM; TGI [43]: 13.2 µM; GI50 [44]: 2.89 µM; TGI [44]: 12 µM; GI50 [45]: 4.1 µM; TGI [45]: 64.1 µM; GI50 [46]: 3.32 µM; TGI [46]: 14.7 µM; GI50 [47]: 0.787 µM; TGI [47]: 8.62 µM; GI50 [48]: 2.78 µM; TGI [48]: 11.4 µM; GI50 [49]: 5.46 µM; TGI [49]: > 100 µM; GI50 [50]: 7.37 µM; TGI [50]: > 100 µM; GI50 [51]: 2.6 µM; TGI [51]: 11.2 µM; GI50 [52]: 4.44 µM; TGI [52]: 63.7 µM; GI50 [53]: 3.13 µM; TGI [53]: 10.5 µM; GI50 [54]: 4.71 µM; TGI [54]: 30 µM; GI50 [55]: 4.82 µM; TGI [55]: 33.4 µM; GI50 [56]: 4.41 µM; TGI [56]: > 100 µM; GI50 [57]: 4.17 µM; TGI [57]: 24.9 µM; GI50 [58]: 11.5 µM; TGI [58]: 38.5 µM
